Assay results published in ChEMBL document CHEMBL1141525, “Substituted 2,2-bisaryl-bicycloheptanes as novel and potent inhibitors of 5-lipoxygenase activating protein” (Bioorg Med Chem Lett, 2008).

Key:
[1] = target: T1, Arachidonate 5-lipoxygenase-activating protein (Homo sapiens, UniProt P20292); assay: Displacement of [125I]L-691831 from FLAP
T1 sequence (P20292 whole entry): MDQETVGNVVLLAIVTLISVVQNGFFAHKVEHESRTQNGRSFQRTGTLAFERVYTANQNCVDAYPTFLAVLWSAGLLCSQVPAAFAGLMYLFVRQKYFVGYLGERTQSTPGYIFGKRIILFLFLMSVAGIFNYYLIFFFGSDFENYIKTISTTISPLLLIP

[2] = Inhibition of calcium ionophore-stimulated LTB4 production in human PMN cells; type: functional, cell-based
[3] = tested on: Blood; assay: Inhibition of calcium ionophore-stimulated LTB4 production in human whole blood; type: functional, tissue-based
[4] = target: T2, Polyunsaturated fatty acid 5-lipoxygenase (Homo sapiens, UniProt P09917); assay: Inhibition of 5LOX
T2 sequence (P09917 whole entry): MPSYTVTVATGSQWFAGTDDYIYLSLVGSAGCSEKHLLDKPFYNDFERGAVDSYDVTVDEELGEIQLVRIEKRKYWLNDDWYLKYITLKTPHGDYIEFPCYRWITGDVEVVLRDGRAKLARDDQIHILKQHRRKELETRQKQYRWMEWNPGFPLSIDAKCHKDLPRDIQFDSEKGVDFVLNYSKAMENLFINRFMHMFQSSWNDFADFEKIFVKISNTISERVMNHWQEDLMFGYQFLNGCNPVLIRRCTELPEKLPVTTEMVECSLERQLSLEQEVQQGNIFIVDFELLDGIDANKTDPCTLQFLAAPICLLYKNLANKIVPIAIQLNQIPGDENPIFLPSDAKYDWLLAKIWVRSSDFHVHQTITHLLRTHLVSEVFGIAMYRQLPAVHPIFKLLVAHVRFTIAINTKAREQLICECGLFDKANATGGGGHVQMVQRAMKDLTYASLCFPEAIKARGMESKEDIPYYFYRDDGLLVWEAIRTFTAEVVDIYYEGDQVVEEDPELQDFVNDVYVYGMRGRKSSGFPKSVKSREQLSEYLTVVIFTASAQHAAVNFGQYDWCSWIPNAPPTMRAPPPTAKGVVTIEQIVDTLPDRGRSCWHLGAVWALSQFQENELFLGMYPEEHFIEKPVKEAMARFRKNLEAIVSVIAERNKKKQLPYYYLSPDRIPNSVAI

[5] = Oral bioavailability in rat at 20 mg/kg; type: ADME, organism-based; conditions: in vivo
[6] = Cmax in rat at 20 mg/kg, po after 6 hrs; type: ADME, organism-based; parameters: dose 20 mg/kg, route oral; conditions: in vivo
[7] = tested on: Canis familiaris; assay: Inhibition of ragweed-induced urinary LTE4 production in dog at 2.5 ug/kg/min, iv; type: functional; conditions: Canis lupus familiaris, Urine

| SMILES | IC50 [1] [µM] | IC50 ([2]; Homo sapiens, PMN) [µM] | IC50 ([3]; Homo sapiens, Blood) [µM] | also measured |
| --- | --- | --- | --- | --- |
| CS(=O)(=O)CCOc1ccc(OCc2ccc3ccccc3n2)cc1C1(c2ccccc2)CC2CCC1C2 (centres undefined) | 0.0055 | 0.0042 | 0.114 |  |
| O=C(Nc1cccnc1)Oc1ccc(OCc2ccccn2)c(C2(c3ccccc3)CC3CCC2C3)c1 (centres undefined) | 0.181 |  | > 3 |  |
| COC(=O)c1ccc(OCc2ccc3ccccc3n2)cc1C1(c2ccccc2)CC2CCC1C2 (centres undefined) | 0.0056 | 0.0026 | 0.14 |  |
| c1ccc(C2(c3cc(OCc4ccc5ccccc5n4)ccc3OCc3ccccn3)CC3CCC2C3)cc1 (centres undefined) | 0.0041 | 0.007 | 0.225 |  |
| Oc1cc(OCc2ccc3ccccc3n2)ccc1C1(c2ccccc2)CC2CCC1C2 (centres undefined) | 0.98 | > 2.37 |  |  |
| COC(=O)COc1cc(OCc2ccc3ccccc3n2)ccc1C1(c2ccccc2)CC2CCC1C2 (centres undefined) | 0.776 | 0.047 |  |  |
| O=C(O)COc1cc(OCc2ccc3ccccc3n2)ccc1C1(c2ccccc2)CC2CCC1C2 (centres undefined) | 3.59 | 0.152 |  |  |
| COC(=O)COc1ccc(OCc2ccc3ccccc3n2)cc1C1(c2ccccc2)CCCC1 | 0.0093 | 0.0017 | 0.89 |  |
| COC(=O)COc1ccc(OCc2ccc3ccccc3n2)cc1C1(c2ccccc2)CCCCC1 | 0.0037 | 0.0018 | 0.2 |  |
| COC(=O)COc1ccc(OCc2ccc3ccccc3n2)c(C2(c3ccccc3)CC3CCC2C3)c1 (centres undefined) | 0.094 | 0.0059 |  |  |
| O=C(O)COc1ccc(OCc2ccc3ccccc3n2)cc1C1(c2ccccc2)CC2CCC1C2 (centres undefined) | 0.014 | 0.016 | > 3 |  |
| O=C(O)CCCOc1ccc(OCc2ccc3ccccc3n2)cc1C1(c2ccccc2)CC2CCC1C2 (centres undefined) | 0.0035 | 0.008 | 0.3 |  |
| COc1ccc(OCc2ccc3ccccc3n2)cc1C1(c2ccccc2)CC2CCC1C2 (centres undefined) | 0.0086 | 0.009 | 1.1 |  |
| CCCCOc1ccc(OCc2ccc3ccccc3n2)cc1C1(c2ccccc2)CC2CCC1C2 (centres undefined) | 0.006 | 0.08 | > 3 |  |
| c1ccc2nc(COc3ccc(C4(c5ccc(OCc6ccc7ccccc7n6)cc5)CC5CCC4C5)cc3)ccc2c1 (centres undefined) | 0.127 | > 1.8 |  |  |
| OCCOc1ccc(C2(c3ccc(OCCO)cc3)CC3CCC2C3)cc1 (centres undefined) | 0.387 | 0.06 |  | IC50 [4]: > 8 µM |
| Oc1ccc(C2(c3ccc(OCc4ccc5ccccc5n4)cc3)CC3CCC2C3)cc1 (centres undefined) | 0.145 | 0.186 |  |  |
| COC(=O)COc1ccc(C2(c3ccc(OCc4ccc5ccccc5n4)cc3)CC3CCC2C3)cc1 (centres undefined) | 0.182 | 0.169 |  |  |
| Oc1ccc(O)c(C2(c3ccccc3)CC3CCC2C3)c1 (centres undefined) | 2.07 | 0.418 |  |  |
| Oc1ccc(OCc2ccc3ccccc3n2)cc1C1(c2ccccc2)CC2CCC1C2 (centres undefined) | 0.0132 | 0.019 | 0.58 | IC50 [4]: 5 µM |

| SMILES | IC50 [1] [µM] | IC50 ([2]; Homo sapiens, PMN) [µM] | IC50 ([3]; Homo sapiens, Blood) [µM] | also measured |
| --- | --- | --- | --- | --- |
| c1ccc(C2(c3cc(OCc4ccc5occc5n4)ccc3OCc3ccccn3)CC3CCC2C3)cc1 (centres undefined) | 0.0049 | 0.0022 | 0.08 |  |
| O=C(O)COc1ccc(C2(c3ccc(OCc4ccc5ccccc5n4)cc3)CC3CCC2C3)cc1 (centres undefined) | 0.098 | 0.044 |  | IC50 [4]: > 6.3 µM |
| O=C(O)c1ccc(OCc2ccc3ccccc3n2)cc1C1(c2ccccc2)CC2CCC1C2 (centres undefined) | 0.0124 | 0.0095 |  |  |
| c1ccc(C2(c3cc(OCc4nc5ccccc5s4)ccc3OCc3ccccn3)CC3CCC2C3)cc1 (centres undefined) | 0.0076 | 0.007 | 0.22 |  |
| CCOC(=O)CCCOc1ccc(OCc2ccc3ccccc3n2)cc1C1(c2ccccc2)CC2CCC1C2 (centres undefined) | 0.0037 | 0.042 | 0.15 |  |
| c1ccc(C2(c3cc(OCc4ccccn4)ccc3OCc3ccccn3)CC3CCC2C3)cc1 (centres undefined) | 0.0183 | 0.0039 | 0.275 |  |
| c1ccc(C2(c3cc(OCc4ccc5ccccc5n4)ccc3OCc3ccc4ccccc4n3)CCCC2)cc1 | 0.0045 | 0.0102 | 1.08 |  |
| c1ccc(C2(c3cc(OCc4ccc5ccccc5n4)ccc3OCc3ccc4ccccc4n3)CCCCC2)cc1 | 0.0042 | 0.0061 | 3 |  |
| COC(=O)COc1ccc(OCc2ccc3ccccc3n2)cc1C1(c2ccccc2)CC2CCC1C2 (centres undefined) | 0.005 | 0.005 | 0.29 | IC50 [4]: > 6 µM |
| O=C(O)COc1ccc(OCc2ccc3ccccc3n2)c(C2(c3ccccc3)CC3CCC2C3)c1 (centres undefined) | 3.15 | 0.282 |  |  |
| Oc1ccc(OCc2ccc3ccccc3n2)cc1C1(c2ccccc2)CCCC1 | 0.022 | 0.005 | 1.92 |  |
| O=C(Nc1cccnc1)Oc1ccc(OCc2ccc3ccccc3n2)cc1C1(c2ccccc2)CCCC1 | 0.0024 | < 0.0013 | 0.052 |  |
| c1ccc(C2(c3cc(OCc4cccnc4)ccc3OCc3ccccn3)CC3CCC2C3)cc1 (centres undefined) | 0.134 | 0.024 |  |  |
| c1ccc(COc2ccc(OCc3ccc4ccccc4n3)cc2C2(c3ccccc3)CC3CCC2C3)cc1 (centres undefined) | 0.0086 | 0.217 | > 3 |  |
| CN(C)CCOc1ccc(OCc2ccc3ccccc3n2)cc1C1(c2ccccc2)CC2CCC1C2 (centres undefined) | 0.0065 | 0.0087 | 0.335 |  |
| O=C(Nc1cccnc1)Oc1ccc(OCc2nc3ccccc3s2)cc1C1(c2ccccc2)CC2CCC1C2 (centres undefined) | 0.0025 |  |  | IC50 ([2]; pmn): 0.0018 µM; IC50 [3]: 0.086 µM |
| O=C(Nc1cccnc1)Oc1ccc(OCc2nc3ccccc3s2)cc1C1(c2ccccc2)CC2CCC1C2 (racemic) | 0.0028 |  |  | IC50 ([2]; pmn): 0.002 µM; IC50 [3]: 0.033 µM; bioavailability [5]: 19%; Cmax [6]: 1.1 µM; inhibition in vivo at 2.5 µg/kg/min [7]: 89% |
| O=C(Nc1cccnc1)Oc1ccc(OCc2nc3ccccc3s2)cc1C1(c2ccccc2)CC2CCC1C2 (single isomer, unassigned; (-)) | 0.0024 | 0.003 |  | IC50 [3]: 0.037 µM |
| CC(C)(C)Sc1c(CC(C)(C)C(=O)O)n(Cc2ccc(Cl)cc2)c2ccc(OCc3ccc4ccccc4n3)cc12 [QUIFLAPON] |  | 0.0031 | 0.51 |  |
